Counter-ions that a name gives are not always drawn.
Legend:
human B1R receptor = molecular target: T1, human B1R receptor (Homo sapiens, UniProt P46663); experiment: Functional study on the bradykinin receptor 1 (B1R), FLIPR Ca2+ assay, hB1R cells; format: cell-based; details: agonist Lys-Des-Arg9-bradykinin 0.5 nM, % inhibition compared with the maximum achievable inhibition; for B1R Antagonism, human [10 μM] % Inhibition: test substance 10 μM, hB1R CHO K1 cells; for inhibition at 10 µM: CHO-K1, test substance 10 μM, read-out: B1R Antagonism, human [10 μM] % Inhibition
T1 construct: host or cells: CHO K1 cells (Chinese hamster ovary), stably transfected
T1 sequence (P46663 1-353): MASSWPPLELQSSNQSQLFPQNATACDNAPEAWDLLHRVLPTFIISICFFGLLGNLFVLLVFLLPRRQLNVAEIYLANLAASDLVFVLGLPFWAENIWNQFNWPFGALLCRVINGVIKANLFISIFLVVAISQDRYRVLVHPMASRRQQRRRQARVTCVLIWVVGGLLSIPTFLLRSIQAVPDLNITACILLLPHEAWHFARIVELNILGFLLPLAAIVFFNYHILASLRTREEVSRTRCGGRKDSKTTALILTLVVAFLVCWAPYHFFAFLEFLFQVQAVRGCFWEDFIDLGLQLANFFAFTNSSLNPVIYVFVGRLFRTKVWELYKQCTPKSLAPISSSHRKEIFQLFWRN
Outline: (§1)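 Readout: peak Fluo-4 Ca2+ fluorescence, FLIPR. Stable CHO K1 hB1R or rB1R cells; cpd 10 μM, 10 min preincubation, then agonist (hB1R: Lys-Des-Arg9-BK 0.5 nM; rB1R: Des-Arg9-BK 100 nM). Value = % inhibition relative to maximal achievable inhibition.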

B1R receptor of the rat = molecular target: T2, B1R receptor of the rat (Rattus norvegicus, UniProt P97583); experiment: Functional study on the bradykinin receptor 1 (B1R), FLIPR Ca2+ assay, rB1R cells; format: cell-based; details: agonist Des-Arg9-bradykinin 100 nM, % inhibition compared with the maximum achievable inhibition; for B1R Antagonism, rat [10 μM] % Inhibition: test substance 10 μM, rB1R CHO K1 cells; for inhibition at 10 µM: CHO-K1, test substance 10 μM, read-out: B1R Antagonism, rat [10 μM] % Inhibition
T2 construct: host or cells: CHO K1 cells (Chinese hamster ovary), stably transfected
T2 sequence (P97583 1-337): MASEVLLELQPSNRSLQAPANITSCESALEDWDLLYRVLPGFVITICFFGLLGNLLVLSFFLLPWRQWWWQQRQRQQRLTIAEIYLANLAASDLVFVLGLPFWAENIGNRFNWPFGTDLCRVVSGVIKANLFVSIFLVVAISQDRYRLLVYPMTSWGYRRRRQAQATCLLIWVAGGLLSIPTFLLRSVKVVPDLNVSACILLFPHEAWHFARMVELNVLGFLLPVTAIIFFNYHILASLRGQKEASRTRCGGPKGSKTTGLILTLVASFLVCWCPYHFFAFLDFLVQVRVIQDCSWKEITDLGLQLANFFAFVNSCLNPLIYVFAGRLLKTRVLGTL
Outline: as §1

Row | B1R Antagonism, human [10 μM] % Inhibition (human B1R receptor) | B1R Antagonism, rat [10 μM] % Inhibition (B1R receptor of the rat) | inhibition at 10 µM (B1R receptor of the rat) | inhibition at 10 µM (human B1R receptor) | Compound
1 | 93.47% |  | 108% |  | COc1cc(C)c(S(=O)(=O)N2CCCCC2COCC(=O)NCc2ccc(N3CCOCC3)cc2)c(C)c1 (stereo not shown) [Example 21, 2-[1-(4-methoxy-2,6-dimethyl-phenylsulfonyl)-piperidin-2-ylmethoxy]-N-(4-morpholin-4-yl-benzyl)-acetamide]
2 |  |  | 99.5% | 94.6% | COc1cc(C)c(S(=O)(=O)N2CCCC2COCC(=O)NCc2ccccc2N2CCN(C)CC2)c(C)c1 (stereo not shown) [Example 473, 2-((1-(4-methoxy-2,6-dimethylphenylsulfonyl)pyrrolidin-2-yl)methoxy)-N-(2-(4-methylpiperazin-1-yl)benzyl)acetamide]
3 |  |  | 99% | 75.8% | O=C(COCC1CCCCN1S(=O)(=O)c1c(Cl)cccc1Cl)NCc1ccc(CN2CCOCC2)cc1 (stereo not shown) [Example 549, 2-((1-(2,6-dichlorophenylsulfonyl)piperidin-2-yl)methoxy)-N-(4-(morpholinomethyl)benzyl)acetamide]
4 |  |  | 109% | 59.9% | COc1cc(C)c(S(=O)(=O)N2CCCC2COCC(=O)NCc2ccc(N3CCCCC3)cc2)c(C)c1 (stereo not shown) [Example 60, 2-[1-(4-methoxy-2,6-dimethyl-phenylsulfonyl)-pyrrolidin-2-ylmethoxy]-N-(4-piperidin-1-yl-benzyl)-acetamide]
5 |  |  | 98.6% | 102% | COc1cc(C)c(S(=O)(=O)N2CCCC2COCC(=O)N2CCN(C)CC2c2ccccc2)c(C)c1 (stereo not shown) [Example 445, 2-((1-(4-methoxy-2,6-dimethylphenylsulfonyl)pyrrolidin-2-yl)methoxy)-1-(4-methyl-2-phenylpiperazin-1-yl)ethanone]
6 |  |  | 102% | 104% | COc1cc(C)c(S(=O)(=O)N2CCCC2COCC(=O)N2CCC(CCN3CCCCC3)CC2)c(C)c1 (stereo not shown) [Example 268, 2-((1-(4-methoxy-2,6-dimethylphenylsulfonyl)pyrrolidin-2-yl)methoxy)-1-(4-(2-(piperidin-1-yl)ethyl)piperidin-1-yl)ethanone]
7 |  |  | 101% | 90.7% | COc1cc(C)c(S(=O)(=O)N2CCCCC2COCC(=O)N2CC[C@@H](N(C)C)C2)c(C)c1 (stereo partly drawn) [Example 363, 1-((R)-3-(dimethylamino)pyrrolidin-1-yl)-2-((1-(4-methoxy-2,6-dimethylphenylsulfonyl)piperidin-2-yl)methoxy)ethanone]
8 |  |  | 102% | 106% | COc1cc(C)c(S(=O)(=O)N2CCCC2COCC(=O)N2CCN(CCc3ccccc3)CC2)c(C)c1 (stereo not shown) [Example 310, 2-((1-(4-methoxy-2,6-dimethylphenylsulfonyl)pyrrolidin-2-yl)methoxy)-1-(4-phenethylpiperazin-1-yl)ethanone]

More lines, now with the values behind:

Row | Compound | B1R Antagonism, human [10 μM] % Inhibition (human B1R receptor) | B1R Antagonism, rat [10 μM] % Inhibition (B1R receptor of the rat) | inhibition at 10 µM (B1R receptor of the rat) | inhibition at 10 µM (human B1R receptor)
9 | Cc1cc(C)nc(CC2CCCN2C(=O)COCC2CCCCN2S(=O)(=O)c2cccc3ccccc23)c1 (stereo not shown) [Example 240, 1-(2-((4,6-dimethylpyridin-2-yl)methyl)pyrrolidin-1-yl)-2-((1-(naphthen-1-ylsulfonyl)piperidin-2-yl)methoxy)ethanone] | 78.48% | 97.3% |  | 
10 | Cc1cc(C)c(S(=O)(=O)N2CCCCC2COCC(=O)N2CCCN(Cc3ccccc3)CC2)c(C)c1 (stereo not shown) [Example 31, 1-(4-benzyl-[1,4]diazepan-1-yl)-2-[1-(2,4,6-trimethyl-phenylsulfonyl)-piperidin-2-ylmethoxy]-ethanone] |  |  | 94.7% | 83.8%
11 | Cc1cccc(N(Cc2ccccc2)C(=O)COCC2CCCCN2S(=O)(=O)c2cc(Cl)sc2Cl)n1 (stereo not shown) [Example 515, N-benzyl-2-((1-(2,5-dichlorothiophen-3-ylsulfonyl)piperidin-2-yl)methoxy)-N-(6-methylpyridin-2-yl)acetamide] |  |  | 100% | 30.9%
12 | COc1cc(C)c(S(=O)(=O)N2CCCCC2COCC(=O)N2CCC(N3CCN(C)CC3)CC2)c(C)c1 (stereo not shown) [Example 524, 2-((1-(4-methoxy-2,6-dimethylphenylsulfonyl)piperidin-2-yl)methoxy)-1-(4-(4-methylpiperazin-1-yl)piperidin-1-yl)ethanone] | 101.62% | 100.66% |  | 
13 | O=C(COCC1CCCCN1S(=O)(=O)c1cccc2ccccc12)N1CCCC1CN1CCCCC1 (stereo not shown) [Example 64, 2-[1-(naphthyl-1-sulfonyl)-piperidin-2-ylmethoxy]-1-(2-piperidin-1-ylmethyl-pyrrolidin-1-yl)-ethanone] | 57.92% | 25.48% |  | 
14 | COc1cc(C)c(S(=O)(=O)N2CCCCC2COCC(=O)N2CCN(CC3CCN(C)CC3)CC2)c(C)c1 (stereo not shown) [Example 106, 2-((1-(4-methoxy-2,6-dimethylphenylsulfonyl)piperidin-2-yl)methoxy)-1-(4-((1-methylpiperidin-4-yl)methyl)piperazin-1-yl)ethanone dihydrochloride] |  |  | 103% | 103%
15 | O=C(COCC1CCCCN1S(=O)(=O)c1c(Cl)cccc1Cl)N1CCN(Cc2ccc(Br)cc2)CC1 (stereo not shown) [Example 406, 1-(4-(4-bromobenzyl)piperazin-1-yl)-2-((1-(2,6-dichlorophenylsulfonyl)piperidin-2-yl)methoxy)ethanone] |  |  | 100% | 103%
16 | Cc1cc(C)c(S(=O)(=O)N2CCCCC2COCC(=O)N2CCC(c3nc4cc(C)ccc4[nH]3)CC2)c(C)c1 (stereo not shown) [Example 222, 2-((1-(mesitylsulfonyl)piperidin-2-yl)methoxy)-1-(4-(5-methyl-1H-benzo[d]imidazol-2-yl)piperidin-1-yl)ethanone] |  |  | 114% | 7.55%
17 | CN1CCC(N2CCN(C(=O)COCC3CCCCN3S(=O)(=O)c3ccc(Cl)c(Cl)c3)CC2)CC1 (stereo not shown) [Example 32, 2-[1-(3,4-dichloro-phenylsulfonyl)-piperidin-2-ylmethoxy]-1-[4-(1-methyl-piperidin-4-yl)-piperazin-1-yl]-ethanone] |  |  | 63.3% | 83.3%
18 | CN1CCC(N2CCN(C(=O)COCC3Cc4ccccc4CN3S(=O)(=O)c3ccc4ccccc4c3)CC2)CC1 (stereo not shown) [Example 178, 1-(4-(1-methylpiperidin-4-yl)piperazin-1-yl)-2-((2-(naphthalen-2-ylsulfonyl)-1,2,3,4-tetrahydroisoquinolin-3-yl)methoxy)ethanone dihydrochloride] |  |  | 99.8% | 102%
19 | COc1cc(C)c(S(=O)(=O)N2CCCCC2COCC(=O)N2CCN(C3CCC(C)CC3)CC2)c(C)c1 (stereo not shown) [Example 105, 2-((1-(4-methoxy-2,6-dimethylphenylsulfonyl)piperidin-2-yl)methoxy)-1-(4-(4-methylcyclohexyl)piperazin-1-yl)ethanone] |  |  | 100% | 106%
20 | COc1ccc(S(=O)(=O)N2c3ccccc3CC2COCC(=O)N2CCN(CCn3c(C)ccc3C)CC2)cc1 (stereo not shown) [Example 548, 1-(4-(2-(2,5-dimethyl-1H-pyrrol-1-yl)ethyl)piperazin-1-yl)-2-((1-(4-methoxyphenylsulfonyl)indolin-2-yl)methoxy)ethanone] |  |  | 95.4% | 24.7%

Reference: US8435978B2, “Substituted sulfonamide compounds” (Gruenenthal GmbH, priority 2006, dated 2013)
